The text below walks through data of US4806534A, “Therapeutically active flavonyl-1,4-dihydrophyridines” (Recordati S.A., Chemical & Pharmaceutical Company, priority 1985, dated 1989).

Series [1] can be described thus: LD50 acute toxicity in mice, i.p. and p.o. (Weil method). The note with it: mouse, in vivo. How it is done:
The LD50 of the novel compounds of the invention was determined in mice, both i.p. and p.o., following the method described by C. S. Weil, Biometrics, 8, 249 (1952).

A further series relates to urinary bladder. As to the kind of experiment: Cystometric recordings in conscious rats (urodynamic parameters). It counts as in vivo. The conditions noted are these: conscious rat, perfusion started 60 min after administration. How it is done: The activity on the urodynamic parameters was detected by cystometric recordings, carried out in conscious rats, according to the method of […] et al, IRCS Medicinal Science, in press (1986), similar to that described by Sjogren, Acta Pharmacol. Toxicol., 39, 177 (1976). The intravesical pressure was recorded during a continuous infusion of saline (37° C.) into the urinary bladder at the constant rate of 0.15 ml/min. […] The perfusion started 60 minutes after administration of the compound.

The structures appear in SMILES notation. Where two headings read alike, the source gives them in different places.

What is called LD50 is the dose at which mortality reaches 50%. As to `COC(=O)C1=C(C)NC(C)=C(C(=O)OC)C1c1cccc2c(=O)c(C)c(-c3ccccc3)oc12` [i, Dimethyl 2,6-dimethyl-4-(3-methylflavon-8-yl)-1,4-dihydropyridine-3,5-dicarboxylate], the 50% lethal dose (LD50) in series [1] (ip, read-out: LD50 i.p.) is 889 mg/kg; in series [1] (po, read-out: LD50 p.o.), over 3000 mg/kg. Also, the results for the “% Change BVC (bladder volume capacity)” value in the series with urinary bladder (10 mg/kg p.o.) and with urinary bladder (30 mg/kg p.o.) were “+18%” and “+21%”, respectively. Moreover, the “% Change MP (micturition pressure)” value in the series with urinary bladder (10 mg/kg p.o.) was -14%; with urinary bladder (30 mg/kg p.o.) it was -19%.

`CC1=C(C(=O)OCCCl)C(c2cccc3c(=O)c(C)c(-c4ccccc4)oc23)C(C(=O)OC(C)C)=C(C)N1` (stereo not drawn) [iii, Isopropyl beta-chloroethyl 2,6-dimethyl-4-(3-methylflavon-8-yl)-1,4-dihydropyridine-3,5-dicarboxylate]: the 50% lethal dose (LD50) in series [1] (ip, read-out: LD50 i.p.) is over 1000 mg/kg; in series [1] (po, read-out: LD50 p.o.), over 3000 mg/kg. Also, in the series with urinary bladder (30 mg/kg p.o.), the “% Change BVC (bladder volume capacity)” value is “+15%”. Also, the “% Change MP (micturition pressure)” value in the series on urinary bladder (30 mg/kg p.o.) is recorded as -1%.

With `CC1=C(C(=O)OCCN2CCCCC2)C(c2cccc3c(=O)c(C)c(-c4ccccc4)oc23)C(C(=O)OC(C)C)=C(C)N1` (centres unmarked) [iv, Isopropyl 2,N-piperidinoethyl 2,6-dimethyl-4-(3-methylflavon-8-yl)-1,4-dihydropyridine-3,5-dicarboxylate], the median lethal dose (LD50) in series [1] (ip, read-out: LD50 i.p.) is 222 mg/kg; in series [1] (po, read-out: LD50 p.o.) it was over 3000 mg/kg.

Turning to `CC1=C(C(=O)OCCN(C)Cc2ccccc2)C(c2cccc3c(=O)c(C)c(-c4ccccc4)oc23)C(C(=O)OC(C)C)=C(C)N1` (centres unmarked) [v, isopropyl 2-(N-benzyl-N-methylamino)ethyl 2,6-dimethyl-4-(3-methylflavon-8-yl)-1,4-dihydropyridine-3,5-dicarboxylate], the median lethal dose (LD50) in series [1] (ip, read-out: LD50 i.p.) is 959 mg/kg; in series [1] (po, read-out: LD50 p.o.), over 3000 mg/kg. Also, the “% Change BVC (bladder volume capacity)” value in the series with urinary bladder (10 mg/kg p.o.) was “+19%”; with urinary bladder (30 mg/kg p.o.), “+22%”. Also, the “% Change MP (micturition pressure)” value with urinary bladder (10 mg/kg p.o.) is recorded as -16%; in the series with urinary bladder (30 mg/kg p.o.), -23%.

Consider `CC1=C(C(=O)OCCN(C)CCC(c2ccccc2)c2ccccc2)C(c2cccc3c(=O)c(C)c(-c4ccccc4)oc23)C(C(=O)OC(C)C)=C(C)N1` (centres unmarked) [vi, isopropyl 2-(N-(3,3-diphenylpropyl)-N-methylamino)ethyl 2,6-dimethyl-4-(3-methylflavon-8-yl)-1,4-dihydropyridine-3,5-dicarboxylate], for which the LD50 in series [1] (ip, read-out: LD50 i.p.) was over 1000 mg/kg. In addition, the LD50 in series [1] (po, read-out: LD50 p.o.) was over 3000 mg/kg. Besides, in the series on urinary bladder (30 mg/kg p.o.), the “% Change BVC (bladder volume capacity)” value was “+31%” and the “% Change MP (micturition pressure)” value is on record as -1%.

Take `CCOC(=O)C1=C(C)NC(C)=C(C(=O)OC)C1c1cccc2c(=O)c(C)c(-c3ccccc3)oc12` (centres unmarked) [viii, Methyl ethyl 2,6-dimethyl-4-(3-methylflavon-8-yl)-1,4-dihydropyridine-3,5-dicarboxylate]: the LD50 in series [1] (ip, read-out: LD50 i.p.) was over 1000 mg/kg; in series [1] (po, read-out: LD50 p.o.), over 3000 mg/kg.

On to `C#CCOC(=O)C1=C(C)NC(C)=C(C(=O)OC)C1c1cccc2c(=O)c(C)c(-c3ccccc3)oc12` (centres unmarked) [xii, Methyl propargyl 2,6-dimethyl-4-(3-methylflavon-8-yl)-1,4-dihydropyridine-3,5-dicarboxylate], for which the 50% lethal dose (LD50) in series [1] (ip, read-out: LD50 i.p.) was 597 mg/kg; in series [1] (po, read-out: LD50 p.o.), over 3000 mg/kg.
